Several values for one entry are separate records, joined by “and”; a condition that tells them apart may be missing. Identical values can stand only once. Like-named read-outs stand apart in the source and are kept apart here.
How the values were obtained:
Fmr1 KO mice [1] = experiment: Test of daily living (marble burying / nesting); type: in vivo; set-up: scale not given here; settings: for Mean 2 (group mean), Test of daily living: KO group mean, n 10
Experimental: (§1) Fmr1 KO mice backcrossed to the FVB strain and WT littermates were used during experiments. TransnetXY Automated Genotyping (www.transnetyx.com/). TRANSNETYX, INC., 8110 Cordova Rd. Suite 119, Cordova, TN 38016, USA was used for genotyping. The animals were pretreated for 14 days. The active ingredients of Sumatriptan and Ergoloid were in a water carrier, whereas oxitriptan was in a methanol carrier.
(§2) The mice were housed in plastic cages (35×30×12 cm), 5 in each. The room temperature (21±2° C.),relative humidity (55±5%), a 12-h light-dark cycle (lights on 7 a.m.-7 p.m.) and air exchange (16 times per h) were automatically controlled. The animals had free access to commercial food pellets and water. Testing was conducted during the light phase. Ten mice per treatment group were used for the AGS experiments. Experiments were conducted in line with the requirements of the UK Animals (Scientific Procedures) Act, 1986.
(§3) All experiments were conducted with the experimenter blind to genotype and drug treatment. Separate investigators prepared and coded dosing solutions, allocated the mice to the study treatment groups, dosed the animals, and collected the Audiogenic Seizure data.
(§4) Behavior testing was conducted at 2 weeks. The behavioral tests were as follows: 1. Hyperactivity: Open field; 2. Stereotypy: Self-grooming; 3. Sociability: Three chamber partition test; 4. Memory and Learning: Novel Object Recognition; 5. Anxiety: hyponeophagia; and 6. Test of daily living: marble burying
For test of daily living, nesting was assessed as nest building is an innate behavior in rodents, even when raised in laboratory settings. Synthetic and/or natural materials (such as twine, tissue, cotton, paper, and hay) are provided as a gauge of their overall well-being and as an ancillary assessment to predict the possible decline in cognition. Typically, changes in nesting behaviors, such as failure to create a nest, indicate a change in health or welfare. In addition, nesting behavior is sensitive to many environmental and physiological challenges, as well as many genetic mutations underlying pathological disease states (Gaskill 2013).
(§5) The treatment of the mice with OX (Oxitriptan), SU (Sumatriptan), ER (Ergoloid mesylates) were according to the matrix shown below in Table 1.

Fmr1 KO mice [2] = experiment: Anxiety: hyponeophagia test; type: in vivo; set-up: unit not given here; settings: for Mean 2 (group mean), Hyponeophagia: KO group mean, n 10
Experimental: as §1, §2, §3, §4
For anxiety a hyponeophagia test was conducted. Mice and rats cannot vomit, due to the tightness of the cardiac sphincter of the stomach, so to overcome the problem of potential food toxicity they have evolved a strategy of first ingesting only very small amounts of novel substances. The amounts ingested then gradually increase until the animal has determined whether the substance is safe and nutritious. So the old rat-catchers would first put a palatable substance such as oatmeal, which was to be the vehicle for the toxin, in the infested area (Deacon 2011).
as §5

[3] = test system: patients with autism or Asperger's disorder; settings: versus placebo; cited from earlier work
[4] = cited from earlier work
Fmr1 KO mice [5] = experiment: Memory and learning: Novel Object Recognition (NOR); type: in vivo; set-up: unit not given here
Experimental: as §1, §2, §3, §4
For memory and learning, a novel object recognition (NOR) task was used to evaluate the rodents' ability to recognize a novel object in the environment. […] The task procedure consists of three phases: habituation, familiarization, and test phase (Antunes 2012).
as §5

FMR1 mice = experiment: Behavioral experiments, FXS phenotypes overall; type: in vivo; settings: summary statement
Experimental: as §1, §4, §5

Fmr1 KO mice [6] = experiment: Sociability: three chamber partition test; type: in vivo; set-up: unit not given here
Experimental: as §1, §2, §3, §4
For sociability a three chamber partition test was utilized. The three-chamber paradigm test known as Crawley's sociability and preference for social novelty protocol has previously been successfully employed to study social affiliation and social memory in several inbred and mutant mouse lines. The main principle of the test was based on the free choice by a subject mouse to spend time in any of three box's compartments during two experimental sessions, including indirect contact with one or two mice with which it was unfamiliar (Kaidanovich-Beilin 2011).
as §5

Fmr1 KO mice [7] = experiment: Stereotypy: self-grooming; type: in vivo; set-up: unit not given here; settings: Sumatriptan 20, Oxitriptan 40, Ergoloid 4 mg/kg, Ergoloid 2 + Oxitriptan 40 mg/kg
Experimental: as §1, §2, §3, §4
For stereotypy, self-grooming was assessed. Self-grooming in animals is an innate behaviour that is involved in hygiene maintenance and other physiologically important processes, including thermoregulation, social communication and de-arousal. It is one of the most frequently observed behaviours in awake rodents and has a patterned, sequential organization with characteristic cephalocaudal progression (Kalueff 2016).
as §5

Fmr1 KO mice [8] = experiment: Open field test (hyperactivity); type: in vivo; set-up: unit not given here; settings: for Mean 2 (group mean), Open Field: KO group mean, n 10
Experimental: as §1, §2, §3, §4
For hyperactivity, the open field test (OFT) is a common measure of exploratory behavior and general activity in both mice and rats, where both the quality and quantity of the activity can be measured. Principally, the open field (OF) is an enclosure, generally square, rectangular, or circular in shape with surrounding walls that prevent escape. The OFT is also commonly used as a mechanism to assess the sedative, toxic, or stimulant effects of compounds (Gould 2009).
as §5

[9] = Dunnett's test against KO-V, Sumatriptan 20, Oxitriptan 40, Ergoloid 4 mg/kg, Ergoloid 2 + Oxitriptan 40 mg/kg
[10] = Fmr1 KO mice, Sumatriptan 20 mg/kg, individual animals
[11] = F_ values, Dunnett's test against F_KO-V, Sumatriptan 20, Oxitriptan 40, Ergoloid 4 mg/kg, Ergoloid 2 + Oxitriptan 40 mg/kg
[12] = Fmr1 KO mice, Sumatriptan 20 mg/kg, F column, individual animals
[13] = N_ values, Dunnett's test against F_KO-V, Sumatriptan 20, Oxitriptan 40, Ergoloid 4 mg/kg, Column N Ergoloid 2 + Oxitriptan 40 mg/kg
[14] = N_ values, Dunnett's test against N_WT-V, Sumatriptan 20, Oxitriptan 40, Ergoloid 4 mg/kg, Ergoloid 2 + Sumatriptan 10, Ergoloid 2 + Oxitriptan 40 mg/kg

CNS(=O)(=O)Cc1ccc2[nH]cc(CCN(C)C)c2c1 [Sumatriptan, 1-[3-[2-(dimethylamino)ethyl]-1H-indol-5-yl]-N-methylmethanesulfonamide]
Mean Diff. (KO-V vs. group), Test of daily living (Fmr1 KO mice [1]; [9]): −3.500
Mean Diff. (WT-V vs. group), Test of daily living (Fmr1 KO mice [1]; Dunnett's test against WT-V, Sumatriptan 20, Oxitriptan 40, Ergoloid 4 mg/kg, Column F Ergoloid 2 + Sumatriptan 10, Column G Ergoloid 2 + Oxitriptan 40 mg/kg): 0.1000
Tests of daily living, KO-Sumatriptan (Fmr1 KO mice [1]; [10]): 5 (7×) and 4 (3×)
Mean 2 (group mean), Test of daily living (Fmr1 KO mice [1]; table against KO-V (mean 1.200), doses as E25): 4.700
Mean 2 (group mean), Test of daily living (Fmr1 KO mice [1]; table against WT-V (mean 4.800), doses as E7): 4.700
Mean Diff. (KO-V vs. group), Hyponeophagia (Fmr1 KO mice [2]; [9]): 82.60
Hyponeophagia, KO-Sumatriptan (Fmr1 KO mice [2]; [10]): 154 (2×) and 157 (2×) and 148 and 153 and 155 and 158 and 159 and 152
Mean 2 (group mean), Hyponeophagia (Fmr1 KO mice [2]; table against KO-V (mean 237.3), doses as E22): 154.7
Mean 2 (group mean), Hyponeophagia (Fmr1 KO mice [2]; table against WT-V (mean 145.5), doses as E4): 154.7
GH response to sumatriptan [3]: significantly greater than to placebo
half life ([4]; administered orally): 1.7 h
half life ([4]; administered subcutaneous): 1.9 h
Mean Diff. (F_KO-V vs. F_ group), NOR (Fmr1 KO mice [5]; [11]): −0.2000
Novel Object Recognition, F_KO-Sumatriptan (Fmr1 KO mice [5]; [12]): 9 (2×) and 5 (2×) and 8 (2×) and 7 (2×) and 4 and 6
Novel Object Recognition, N_KO-Sumatriptan (Fmr1 KO mice [5]; [10]): 6 (2×) and 8 (2×) and 9 (3×) and 5 and 7
Mean 2 (group mean), NOR (Fmr1 KO mice [5]; N_ values, KO group mean, table against N_WT-V (mean 13.90), doses as E10): 7.300
Mean Diff. (F_KO-V vs. N_ group), NOR (Fmr1 KO mice [5]; [13]): −0.7000
Mean Diff. (N_WT-V vs. group), NOR (Fmr1 KO mice [5]; [14]): 6.600
effect on FXS phenotypes (FMR1 mice): ameliorates the FXS phenotypes in FMR1 mice
Mean 2 (F_ group mean), Sociability (Fmr1 KO mice [6]; F_ values, KO group mean, table against F_KO-V, doses as E34): 62.20
Mean Diff. (F_KO-V vs. F_ group), Sociability (Fmr1 KO mice [6]; [11]): 19.40
Sociability, F_KO-Sumatriptan (Fmr1 KO mice [6]; [12]): 61 (2×) and 64 and 65 (2×) and 60 (3×) and 63 (2×)
Sociability, N_KO-Sumatriptan (Fmr1 KO mice [6]; [10]): 99 and 97 (2×) and 103 and 98 and 90 and 102 and 100 and 95 and 101
Mean 2 (N_ group mean), Sociability (Fmr1 KO mice [6]; N_ values, KO group mean, table against F_KO-V, doses as E37): 98.20
Mean 2 (group mean), Sociability (Fmr1 KO mice [6]; N_ values, KO group mean, table against N_WT-V (mean 99.10), doses as E13): 98.20
Mean Diff. (F_KO-V vs. N_ group), Sociability (Fmr1 KO mice [6]; [13]): −18.80
Mean Diff. (N_WT-V vs. group), Sociability (Fmr1 KO mice [6]; [14]): 0.9000
Mean Diff. (KO-V vs. group), Stereotypy (Fmr1 KO mice [7]; Dunnett's test against KO-V): 14.60
Data table Stereotypy (individual animals) (Fmr1 KO mice [7]; KO mice, one value per animal): 29 and 35 and 31 (2×) and 30 (3×) and 32 and 28 and 33
Mean Diff. (WT-V vs. group), Open Field (Fmr1 KO mice [8]; Dunnett's test against WT-V, Sumatriptan 20 mg/kg, 5-HTP 80 mg/kg, EM 4 mg/kg, Column F Ergoloid 2 + Sumatriptan 10 mg/kg, Ergoloid 2 + Oxitriptan 40 mg/kg): −3209
Mean 2 (group mean), Open Field (Fmr1 KO mice [8]; table against KO-V (mean 8263), doses as E16): 7416
Mean 2 (group mean), Open Field (Fmr1 KO mice [8]; table against WT-V (mean 4207), doses as E1): 7416
